In paper PMC9348551, “An amelogenin-based peptide hydrogel promoted the odontogenic differentiation of human dental pulp cells” (Regenerative Biomaterials, 2022):
Square brackets hold non-standard residues; d marks the D form. Ends that are not written are not given here. Peptide text beside a SMILES is read from it. * marks the point of attachment. Acetyl(2-naphthyl) = O=C(Cc1ccc2ccccc2c1)*

Legend:
[1] = system: human dental pulp cells (HDPCs); assay: Western blot of DSPP, DMP-1 and ALP in HDPCs; format: cell-based; conditions: D-gel and U0126 for 7 and 14 days, P < 0.05, in words
Experimental: The healthy premolars and third molars extracted for orthodontic or other reasons were collected from patients (14–22 years old) visited Tianjin Stomatological Hospital. This study had been approved by the Ethics Committee of Tianjin Stomatological Hospital (Approval number: 2018012). The informed consent was obtained from each patient. The dental pulp tissue was dissected within 4 h after tooth extraction, minced into 1 mm^3 pieces with sterile scissors and transferred to a cell culture flask containing alpha-modified Eagle’s medium (α-MEM, Gibco, California, USA) supplemented with 10% fetal bovine serum (FBS, Gibco, New York, NY, USA), 100 U/ml penicillin and 100 μg/ml streptomycin (PS, Sigma, California, USA). The cells were cultured in a 5% CO2 incubator at 37°C. The HDPCs at 3–4 passage were used in this study.
The HDPCs (2 × 10^5) were treated under different conditions for different time points. The EMPs (1 µM) were also added to the HDPCs as an extra control group. Then the cells were harvested and lysed in 200 µL lysis buffer (Beyotime, Shanghai, China) and centrifuged (12 000 rpm for 10 min, at 4°C). The protein concentration was evaluated with a BCA kit (Solarbio, Beijing, China). The protein was mixed with 5× loading buffer and heated at 95°C for 5 min, separated by precast PAGE gel (Beyotime, Shanghai, China) and transferred to polyvinylidene fluoride membranes. […]

[2] = system: MAPK-ERK1/2 pathways in HDPCs; assay: Western blot of phospho-ERK1/2 in HDPCs; format: cell-based, human; conditions: 10 µM inhibitor pretreatment 1 h then D-gel 1 h, P < 0.05, in words
Experimental: The HDPCs (2 × 10^5) were treated under different conditions for different time points. The EMPs (1 µM) were also added to the HDPCs as an extra control group. Then the cells were harvested and lysed in 200 µL lysis buffer (Beyotime, Shanghai, China) and centrifuged (12 000 rpm for 10 min, at 4°C). The protein concentration was evaluated with a BCA kit (Solarbio, Beijing, China). The protein was mixed with 5× loading buffer and heated at 95°C for 5 min, separated by precast PAGE gel (Beyotime, Shanghai, China) and transferred to polyvinylidene fluoride membranes. After blocked at room temperature for 15 min, then incubated with the primary antibody (DSPP, DMP-1, Smad2/3, c jun, p-c jun, c fos, p-c fos, c jun B) (Santa Cruz, California, USA), [p-ERK1/2, ERK1/2, alkaline phosphatase (ALP), p-Smad2/3, GAPDH] (Beyotime, Shanghai, China). Then, the membranes were incubated with the goat anti-rabbit IgG-HRP secondary antibody or goat anti-mouse IgG-HRP secondary antibody for 1 h, respectively. Then, an ultrasensitive chemiluminescence kit (Beyotime, Shanghai, China) was used to detect the protein bands. A chemiluminescence imager (Bio-Rad, California, USA) was used to scan the protein bands. The Image Lab software was used to analyze the relative protein expression levels. […]

[3] = Proteinase K stability (compound remaining); format: in vitro ADME; conditions: Tritirachium album (source organism of proteinase K); initial concentration 1.0 mM, 0.1 mg/ml proteinase K, 24 h; read-out: compound remaining after 24 h
Experimental: (§1) Both Nap-GFFY-G-KWYQNMIR (Comp. 1) and Nap-G^DF^DF^DY-G-KWYQNMIR (Comp. 2) could form hydrogels by heating and cooling, namely L-gel and D-gel (Fig. 1A–C). The ultrastructures of the L-gel and D-gel were both nanofibers (Fig. 1D and E). The mechanical properties of the L-gel and D-gel remained relatively constant (Fig. 1F and G). […] The CAC values of the AMG-P8, L-gel and D-gel were 354.91, 84.25 and 86.62 μM, respectively (Fig. 1I and J). […] That was the result of an initial concentration of 1.0 mM AMG-P8 incubated with 0.1 mg/ml of proteinase K for 24 h, whereas the L-gel and D-gel still retained 62.21% and 78.06% of the compound, respectively, after 24 h (Fig. 1K).
(§2) Figure 1. Chemical structures of (A) AMG-P8 (KWYQNMIR); (B) Comp.1 (Nap-GFFYGKWYQNMIR) and (C) Comp.2 (Nap-G^DF^DF^DYGKWYQNMIR). TEM and optical images of (D) L-gel and (E) D-gel. Dynamic frequency and strain sweep measurements of L-gel and D-gel (F, G). (H) Circular dichroism spectra of L-gel and D-gel. Determination of CAC values of L-gel (I) and D-gel (J). (K) Compound remaining of the AMG-P8, L-gel and D-gel for an initial concentration of 1.0 mM incubated with 0.1 mg/ml of proteinase K for 24 h. TEXT PRINTED IN THE PICTURE: (I) L- gel: CAC=84.25 μM | (J) D- gel: CAC=86.62 μM DOUBTS OF THE COPYIST ABOUT THIS PICTURE: L- gel, CAC: small print, 84.25 could be 84.26 or 64.25 / D- gel, CAC: small print, 86.62 could be 88.62 or 86.82

[4] = system: human dental pulp cells (HDPCs); format: cell-based
Experimental: The HDPCs (1 × 10^5 cells/well) in the six well plates were treated with basal medium, AMG-P8, L-gel, D-gel, EMPs for 21 days. After fixed in the 4% paraformaldehyde for 15 min, the mineralized nodules were stained with 1% Alizarin Red (Solarbio, Beijing, China) for 10 min and washed in double-distilled water to eliminate floating colors. Images were captured with a Ti-S microscope (Nikon, Japan). For quantitative analysis of calcified nodules, 10% cetylpyridinium chloride (CPC; Sigma, USA) was used to dissolve Alizarin red. One milliliter of 10% CPC per well was added and shook for 30 min. The absorbance value was measured at 560 nm using a multifunctional microplate reader (Tecan Ltd., Männedorf, Switzerland).

[5] = Solubility of the peptide; format: physicochemical; conditions: in words
proteinase K = proteinase K (Parengyodontium album, UniProt P06873); assay: Proteinase K stability (compound remaining); format: in vitro ADME; conditions: initial concentration 1.0 mM, 0.1 mg/ml proteinase K
Sequence of proteinase K (P06873 106-384, species assumed): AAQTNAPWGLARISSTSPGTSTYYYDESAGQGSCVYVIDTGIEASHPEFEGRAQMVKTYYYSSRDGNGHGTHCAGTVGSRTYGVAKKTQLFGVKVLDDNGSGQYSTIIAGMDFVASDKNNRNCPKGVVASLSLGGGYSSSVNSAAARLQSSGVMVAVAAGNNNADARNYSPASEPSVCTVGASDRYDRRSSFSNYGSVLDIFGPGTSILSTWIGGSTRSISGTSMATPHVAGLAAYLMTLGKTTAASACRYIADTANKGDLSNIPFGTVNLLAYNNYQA
Experimental: as §1, §2

Q: With N#CC(=C(/N)Sc1ccccc1N)/C(C#N)=C(/N)Sc1ccccc1N [U0126] as the molecule, how does the “effect on D-gel-induced expression of DSPP and ALP” value [1] read?
A: The value was “suppressed”.

Q: What about the “effect on D-gel-induced phospho-ERK1/2 upregulation” value [2] of the same molecule?
A: Its value is “specifically blocked”.

Q: Which remaining at 24 h, 1 mM [3] does the source give for CC[C@H](C)[C@H](NC(=O)[C@H](CCSC)NC(=O)[C@H](CC(N)=O)NC(=O)[C@H](CCC(N)=O)NC(=O)[C@H](Cc1ccc(O)cc1)NC(=O)[C@H](Cc1c[nH]c2ccccc12)NC(=O)[C@H](CCCCN)NC(=O)CNC(=O)[C@@H](Cc1ccc(O)cc1)NC(=O)[C@@H](Cc1ccccc1)NC(=O)[C@@H](Cc1ccccc1)NC(=O)CNC(=O)Cc1ccc2ccccc2c1)C(=O)N[C@@H](CCCNC(=N)N)C(=O)O [D-gel] ({Acetyl(2-naphthyl)}-G[dF][dF][dY]GKWYQNMIR-OH) here?
A: Its remaining at 24 h, 1 mM is 78.1%.

Q: What about the “Alizarin red OD value as percent of the EMPs group” value [4] of the same molecule?
A: The value was “about 80%”.

Q: What does the source list for KWYQNMIR [AMG-P8]?
A: solubility [5]: good solubility; time within which the peptide was hydrolyzed (proteinase K): ≤ 30 min

Q: Which remaining at 24 h, 1 mM [3] does the source give for CC[C@H](C)[C@H](NC(=O)[C@H](CCSC)NC(=O)[C@H](CC(N)=O)NC(=O)[C@H](CCC(N)=O)NC(=O)[C@H](Cc1ccc(O)cc1)NC(=O)[C@H](Cc1c[nH]c2ccccc12)NC(=O)[C@H](CCCCN)NC(=O)CNC(=O)[C@H](Cc1ccc(O)cc1)NC(=O)[C@H](Cc1ccccc1)NC(=O)[C@H](Cc1ccccc1)NC(=O)CNC(=O)Cc1ccc2ccccc2c1)C(=O)N[C@@H](CCCNC(=N)N)C(=O)O [L-gel] ({Acetyl(2-naphthyl)}-GFFYGKWYQNMIR-OH) here?
A: Its remaining at 24 h, 1 mM is 62.2%.
